Where a name gives a salt, the structure may show the parent alone.
Columns and labels:
[1] = biological target: T1, C-terminal catalytic domain of human DNMT3A (hDNMT3A) (Homo sapiens, UniProt Q9Y6K1); assay: DNMT3A restriction-based fluorescence assay; format: biochemical; settings: mean of at least two independent experiments; read-out: Enzyme Inhibition (EC50 ± SD) hDNMT3A
T1 construct: the C-terminal catalytic domain of human DNMT3A (hDNMT3A)
Experimental: DNMT3A enzyme inhibition was adapted from the restriction-based fluorescence assay protocol described in Ceccaldi et al.. Briefly, a biotin-labelled oligonucleotide at the 5’ end is hybridized to his complementary strand labelled at the 3’ end with 6-carboxyfluorescein. The DNA duplex containing only one single CpG site overlapping with a restriction site of a methylation sensitive restriction enzyme is transferred in the wells coated with avidin. The methylation reaction is performed by adding human C-terminal DNMT3A at the final concentration of 4 ng/µL in a total volume of 50 µL in the presence of the inhibitors at various concentrations and the co-substrate SAM at the final concentration of 20 µM. The plate was incubated for 1 h at 37 °C, washed, and added with the methylation sensitive restriction enzyme HpyCH4IV, incubated for 1 h further at 37 °C, washed and the fluorescence measured with a PerkinElmer Envision Multilabel Plate Reader. The data are expressed as percentage of inhibition vs. log concentration (M). Data are normalized referring to the “restriction control” (wells coated with labelled duplex not treated nor exposed to DNMT3A, but only cleaved by HpyCH4IV) as the maximum of inhibition (100%) and to the “DMSO control” (wells coated with labelled duplex but treated just with 0.1% DMSO exposed to DNMT3A and then to HpyCH4IV) as the minimum of inhibition (0%; total methylation).

HL60 APL cells = assay: Antiproliferative activity, MTT; format: cell-based; settings: Homo sapiens, HL-60, 48 h treatment, read-out: Antiproliferative Activity (IC50 ± SD) HL60
Experimental: (§1) U937 histiocytic lymphoma, HL60 acute promyelocytic leukemia, H1299 lung adenocarcinoma, MCF7 breast carcinoma, HT1080 fibrosarcoma, M14 melanoma, HeLa epithelial cervix carcinoma and peripheral blood B lymphocyte AHH1 human cell lines were obtained from the Deutsche Sammlung für Mikroorganismen and Zellkulturen (DSZM, Braunschweig, Germany) and were maintained in RPMI 1640 medium contained 10% fetal bovine serum (FBS), 2 mM L-glutamine, and antibiotics in a humidified atmosphere with 5% CO2 at 37 °C. HCT116 (ATCC, VA, USA) cells were propagated in Dulbecco’s modified Eagle medium (DMEM) (Euroclone, Milan, Italy) with 10% fetal bovine serum (FBS; Euroclone, Milan, Italy), 2 mM L-glutamine (Euroclone, Milan, Italy), and antibiotics (100 U/mL penicillin, 100 µg/mL streptomycin) (Euroclone, Milan, Italy). The experiments were performed with early (3–20) cell passages. Cell lines were treated with compounds at the indicated concentrations in the exponential growth phase.
(§2) Then, increasing concentrations of different compounds (ranging from 0.01 to 100 μM) were added, and cell proliferation was evaluated by a MTT assay after 48 h. Cells exposed to DMSO were used as control. The effect of compounds was evaluated using the CellTiter-Glo luminescent cell viability assay (Promega, Madison, WI, USA) according to the manufacturer’s instructions. For HCT116, 5 × 10^4 cells/well were plated in 24-well plate and treated, in duplicate, with compounds at several concentrations for 24 and 48 h of induction. After treatments, MTT solution was added for 3 h at 0.5 mg/mL, the obtained crystals were dissolved in DMSO (Sigma-Aldrich, Milan, Italy), and the absorbance was read at a wavelength of 570 nm with reader TECAN M-200. All the experiments were performed in triplicate and repeated at least three times.
(§3) IC50 values of compounds against cellular viability were determined by using nonlinear regression fitting curves with GraphPad Prism 8. The t-test used for statistical analyses was performed with GraphPad Prism 8. All the tests were one-tailed and a p-value < 0.05 was considered statistically significant.

U937 AML cells = assay: Antiproliferative activity, MTT; format: cell-based; settings: Homo sapiens, U-937, 48 h treatment, read-out: Antiproliferative Activity (IC50 ± SD) U937
Experimental: as §1, §2, §3

U937 cells = assay: Sub-G1 peak, cell cycle flow cytometry; format: cell-based, human; settings: U937, 1 µM, 24 and 48 h
Experimental: Cell cycle analysis was performed on 5 × 10^5 fixed cells resuspended in a RNase A (3 mg/mL) and propidium iodide (PI) solution (1 mg/mL). Samples were analyzed with a C6 Accuri BD (Becton Dickinson & Co., San Jose, CA, USA). The percentage of apoptosis was measured analyzing sub-G1 peaks. Apoptotic cell death was also evaluated by using annexin V–fluorescein isothiocyanate (FITC) apoptosis kit (BD Bioscience) and assayed according to the manufacturer’s instructions. Cells double-stained for both annexin V and PI were analyzed by flow cytometry. PI was used in conjunction with annexin V–FITC to distinguish cells in the earlier stages of apoptosis (annexin V-FITC positive, PI negative) from those in later stages of apoptosis or that were already dead (annexin V–FITC positive, PI positive). Percentage of cells positive for caspase-3 activation was evaluated by Active Caspase-3 Apoptosis Kit (BD biosciences, Milan, Italy) according to the manufacturer’s instructions.

[2] = system: H1299 human non-small cell lung carcinoma; assay: Antiproliferative activity, MTT; format: cell-based; settings: Homo sapiens, NCI-H1299, 48 h, 48 h treatment, read-out: Antiproliferative Activity (IC50 ± SD) H1299
Experimental: as §1, §2, §3

[3] = system: HCT116 human colorectal carcinoma; assay: Antiproliferative activity, MTT; format: cell-based; settings: HCT-116, 48 h treatment, read-out: Antiproliferative Activity (IC50 ± SD) HCT116
Experimental: as §1, §2, §3

[4] = system: HT1080 human fibrosarcoma; assay: Antiproliferative activity, MTT; format: cell-based; settings: HT-1080, 48 h treatment, read-out: Antiproliferative Activity (IC50 ± SD) HT1080
Experimental: as §1, §2, §3

[5] = system: HeLa epithelial cervix carcinoma; assay: Antiproliferative activity, MTT; format: cell-based; settings: Homo sapiens, 48 h treatment, read-out: Antiproliferative Activity (IC50 ± SD) HeLa
Experimental: as §1, §2, §3

M14 human melanoma = assay: Antiproliferative activity, MTT; format: cell-based; settings: 48 h treatment, read-out: Antiproliferative Activity (IC50 ± SD) M14
Experimental: as §1, §2, §3

F21T G-quadruplex DNA = assay: FRET melting assay, G-quadruplex DNA; format: binding
Experimental: (§4) Experimental procedure for Fluorescence Resonance Energy Transfer (FRET) melting assay Oligonucleotides labeled at 5’ with FAM (6-carboxyfluorescein) as donor fluorophore and TAMRA (6 - carboxytetramethylrhodamine) at 3’ as the acceptor fluorophore were purchased from STAB VIDA (Portugal). Each oligonucleotide was initial ly diluted to 100 µM in water (Molecular Biology Reagent, Sigma). Stock solutions of 20 µM and subsequent dilutions were made with FRET buffer (60 mM KCl, potassium cacodylate, pH 7.4). Tagged oligonucleotides at 0.4 µM were annealed by heating at 90 -95 °C for 10 min, followed by slow cooling to room temperature. St ock solutions of compounds (1 mM) were prepared in 10% DMSO. Subsequent dilutions were performed using FRET buffer. Annealed DNA (50 µL) and test compound solutions (50 µL) were distributed across 96-well RT-PCR plates (PCR-96-FLT-C, Axygen, Inc). Fluorescence readings (performed in a 7300 RT -PCR equipment from Applied Biosystems) were taken at intervals of 0.5 °C in the range 31 –95 °C, with the temperature being maintained for 30 seconds prior to each reading. Experiments were performed in triplicate. Fina l analysis of the data was carried out with GraphPad Prism v.5.0 (GraphPad Software Inc., La Jolla, CA, USA).
(§5) The advanced curve-fitting function in GraphPad Prism (nonlinear regression fit) was used for calculation of ΔTm values. Only results with fitting r2 values > 0.75 (std error < 0.25) were considered.
(§6) Table S2. Synthetic oligonucleotides used in FRET experiments.

KRAS21R G-quadruplex DNA = assay: FRET melting assay, G-quadruplex DNA; format: binding
Experimental: as §4, §5, §6

[6] = system: luciferase reporter under methylated CMV promoter in KG-1 leukemia cells; assay: CMV-luc assay in KG-1 cells; format: cell-based; settings: KG-1 CMV-luc, vs DMSO
Experimental: The assay was carried out as described by Rilova et al.. The KG-1 cell line was stably transfected with the luciferase firefly (Luc^+ from pGL3 by Promega, Madison, WI, USA) reporter gene under the control of a methylated CMV promoter (from pEGFP-N1 by Clontech) and selected for the maintenance of the methylation of CMV and luciferase expression silencing (KG-1 CMV-luc). The stably integrated KG-1 CMV-luc cells are cultivated in RPMI-1640 medium (Lonza, Strasbourg, France), supplemented with 10% FCS (Lonza, Strasbourg, France) and 0.5 mg/mL of geneticin (Sigma-Aldrich, Saint-Quentin Fallavier, France), under 5% CO2, at 37 °C and seeded at 20,000 cells per well in 96-well plates. After 5 or 24 h of incubation in the presence of compounds or the solvent DMSO, the induction of the promoter is measured by quantification of luciferase with the Brite-lite assay system (PerkinElmer, Villebon-sur-Yvette, France) according to the manufacturer’s protocol. The luminescence is measured on an EnVision Multilabel Plate Reader (PerkinElmer, Villebon-sur-Yvette, France), and the data are expressed as fold induction compared to DMSO control. The mean of 2–4 experiments and its standard error are reported.

[7] = system: methylated UCHL1 promoter (pUCHL1) in HCT116 cells; assay: UCHL1 promoter demethylation assay (EGFP induction, FACS); format: cell-based, human; settings: HCT116, 5 µM, five days
Experimental: The assay was performed as described in [29]. Briefly, human colon cancer HCT116 (ATCC, VA, USA) cells were grown in Dulbecco’s Modified Eagle Medium (DMEM; Euroclone, Milan, Italy) supplemented with 10% fetal bovine serum (FBS; Euroclone, Milan, Italy), 2 mM L-glutamine (Euroclone), and antibiotics (100 U/mL penicillin, 100 µg/mL streptomycin) (Euroclone). The pUMLIEP vector (composed by MetLuc-IRES-EGFP construct upon the control of the ubiquitin carboxyl-terminal hydrolase L1 (UCHL1)) was linearized and methylated by with ClaI and SssI-methylase enzymes (New England Biolabs, Milan, Italy). After, methylated pUMLIEP was transfected into HCT116 cells following the protocol described in [30]. […] On day 5, cells were observed under by a fluorescent microscope (Cytation 5 Cell Imaging Multi-Mode Reader (BioTeK Milan, Italy) and BD Accuri flow cytometers. Nuclei were counterstained with DAPI (10 µg/mL, Invitrogen, Tournai, Belgium).

T1 sequence (Q9Y6K1 634-912 limits assumed): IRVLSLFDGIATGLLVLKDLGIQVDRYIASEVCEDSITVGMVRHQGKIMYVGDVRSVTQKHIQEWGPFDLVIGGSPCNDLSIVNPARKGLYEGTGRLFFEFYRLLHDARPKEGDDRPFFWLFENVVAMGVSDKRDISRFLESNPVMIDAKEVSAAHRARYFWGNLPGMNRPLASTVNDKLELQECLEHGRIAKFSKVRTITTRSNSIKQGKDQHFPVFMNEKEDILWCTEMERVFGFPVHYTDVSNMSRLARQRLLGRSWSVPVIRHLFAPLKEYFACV

| Structure (SMILES) | melting point | EC50 [1] | IC50 (HL60 APL cells) | IC50 (U937 AML cells) | other results |
| --- | --- | --- | --- | --- | --- |
| Cc1cc(Nc2cccc(CNC(=O)c3cccc(Nc4ccnc5ccccc45)c3)c2)nc(N)n1 (as salt: hydrochloride) [Compound 1c] | 183 to 185 °C |  |  |  |  |
| Cc1cc(Nc2cccc(NC(=O)Cc3cccc(Nc4ccnc5ccccc45)c3)c2)nc(N)n1 [Compound 1b] | 163 to 165 °C | 19 ± 2 µM | 40 ± 5 µM | 37 ± 5.9 µM |  |
| Cc1cc(Nc2cccc(C(=O)Nc3cccc(Nc4ccnc5ccccc45)c3)c2)nc(N)n1 [Compound 1e] | 227 to 229 °C | 21 ± 4 µM | 9.9 ± 1.1 µM | 4.8 ± 0.6 µM |  |
| O=C(Nc1cccc(NC(=O)c2cccc(Nc3ccnc4ccccc34)c2)c1)OCc1ccccc1 [Compound 4b] |  | 13 ± 1.4 µM | 1.9 ± 0.3 µM | 3.2 ± 0.6 µM | effect on sub-G1 peaks vs untreated cells (U937 cells): remarkable increase; IC50 [2]: 40 ± 4.8 µM; IC50 [3]: 20.5 ± 2.8 µM; IC50 [4]: 13.1 ± 1.5 µM; IC50 [5]: 65 ± 7.3 µM; IC50 (M14 human melanoma): 15.3 ± 2 µM; F21T ∆Tm (F21T G-quadruplex DNA; 5 µM): 3.8 ºC; F21T ∆Tm (F21T G-quadruplex DNA; 10 µM): 1.5 ºC; KRAS ∆Tm (KRAS21R G-quadruplex DNA; 5 µM): 2.8 ºC; KRAS ∆Tm (KRAS21R G-quadruplex DNA; 10 µM): 2.5 ºC |
| Nc1ncn([C@H]2C[C@H](O)[C@@H](CO)O2)c(=O)n1 [DAC, 5-aza-2′-deoxycytidine, reference compound] |  |  |  |  | Luciferase Expression (Fold ± SD) ([6]; 0.5 µM): 18.13 ± 5.52 fold; Luciferase Expression (Fold ± SD) ([6]; 1 µM): 19.80 ± 3.88 fold; Luciferase Expression (Fold ± SD) ([6]; 5 µM): 23.82 ± 5.44 fold; Luciferase Expression (Fold ± SD) ([6]; 10 µM): 20.96 ± 4.02 fold; pUCHL1 demethylation, EGFP-positive cells (FACS R1) [7]: 46.6% |
| Cc1cc(Nc2cccc(NC(=O)c3cccc(CNc4ccnc5ccccc45)c3)c2)nc(N)n1 [Compound 1a] | 153 to 155 °C | 21 ± 3.1 µM | 18.1 ± 2.4 µM | 1.4 ± 0.2 µM |  |
| Cc1cc(Nc2cccc(NCc3cccc(Nc4ccnc5ccccc45)c3)c2)nc(N)n1 [Compound 1f] | 98 to 100 °C | 12 ± 3 µM | 1.9 ± 0.1 µM | 4.4 ± 0.7 µM |  |
| C[n+]1ccc(-c2c3nc(c(-c4cc[n+](C)cc4)c4ccc([nH]4)c(-c4cc[n+](C)cc4)c4ccc([nH]4)c(-c4cc[n+](C)cc4)c4nc2C=C4)C=C3)cc1 [Py4P, reference compound] |  |  |  |  | F21T ∆Tm (F21T G-quadruplex DNA; positive control at 1 µM): 21.2 ºC; KRAS ∆Tm (KRAS21R G-quadruplex DNA; positive control at 1 µM): 18.8 ºC |
| Cc1cc(NCc2cccc(NC(=O)c3cccc(Nc4ccnc5ccccc45)c3)c2)nc(N)n1 [Compound 1d] | 260 to 262 °C | 51 ± 10 µM | 67 ± 7.4 µM | 67 ± 8.8 µM |  |

The next lines start with results.

| melting point | EC50 [1] | IC50 (HL60 APL cells) | IC50 (U937 AML cells) | Structure (SMILES) | other results |
| --- | --- | --- | --- | --- | --- |
| 292 to 294 °C | 13 ± 0.9 µM | 125 ± 16.2 µM | 66 ± 9.2 µM | Cc1cc(Nc2ccc(C(=O)Nc3cccc(Nc4cc(C)nc(N)n4)c3)cc2)nc(N)n1 [Compound 3c] |  |
| 218 to 220 °C | 41 ± 10 µM | 83 ± 10.2 µM | 52.4 ± 7.6 µM | Cc1cc(Nc2ccc(NC(=O)c3cccc(Nc4cc(C)nc(N)n4)c3)cc2)nc(N)n1 [Compound 3a] |  |
| 105 to 107 °C | > 100 µM | 225 ± 28.5 µM | 123 ± 15 µM | Cc1cc(Nc2cccc(NC(=O)c3cccc(Nc4cc(C)nc(N)n4)c3)c2)nc(N)n1 [Compound 3b] |  |
